ChEMBL document CHEMBL1201862, “PubChem BioAssay data set” (2004)
Activity calls are given as the source filed them.

Experiments:
[1] = NIH3T3 cell viability loss – ATP luminescence, mouse fibroblasts, counter-screen, dose response (AID 2010); type: functional, cell-based;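 also: cells exposed to compound for about 90 hours before reading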
Cysteine protease ATG4B = Cysteine protease ATG4B (Homo sapiens, UniProt Q9Y4P1); type: functional;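 also: Fluorescence-based dose-response confirmation assay measuring inhibition of ATG4B activity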
[2] = Trypanosoma cruzi growth suppression in host cells – NIH3T3 host cells, beta-gal luminescence, confirmation (AID 2044); type: functional, cell-based;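 also: intracellular parasites grown in NIH/3T3 mouse fibroblasts as host cells; luminescent beta-galactosidase reporter signal from transgenic T. cruzi replicating inside host cells; inhibitors lower the luminescence signal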
Phospholipase A2 = Phospholipase A2 (Homo sapiens, UniProt P04054); type: functional;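 also: confirmatory dose-response counterscreen on phospholipase A2, testing hits that came from an ultra-high-throughput screen for ATG4B inhibitors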
[3] = target: T1, Microphthalmia-associated transcription factor (Homo sapiens, UniProt O75030); experiment: reducers of TRPM1 reporter luminescence, concentration series – cell-based, SK-MEL-5, cherry-picked, set 3, MITF inhibitor project, dose response (AID 493073); type: functional;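 also: SK-MEL-5 melanoma cells with luciferase driven by the MITF target TRPM1 promoter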
T1 sequence (O75030 whole entry): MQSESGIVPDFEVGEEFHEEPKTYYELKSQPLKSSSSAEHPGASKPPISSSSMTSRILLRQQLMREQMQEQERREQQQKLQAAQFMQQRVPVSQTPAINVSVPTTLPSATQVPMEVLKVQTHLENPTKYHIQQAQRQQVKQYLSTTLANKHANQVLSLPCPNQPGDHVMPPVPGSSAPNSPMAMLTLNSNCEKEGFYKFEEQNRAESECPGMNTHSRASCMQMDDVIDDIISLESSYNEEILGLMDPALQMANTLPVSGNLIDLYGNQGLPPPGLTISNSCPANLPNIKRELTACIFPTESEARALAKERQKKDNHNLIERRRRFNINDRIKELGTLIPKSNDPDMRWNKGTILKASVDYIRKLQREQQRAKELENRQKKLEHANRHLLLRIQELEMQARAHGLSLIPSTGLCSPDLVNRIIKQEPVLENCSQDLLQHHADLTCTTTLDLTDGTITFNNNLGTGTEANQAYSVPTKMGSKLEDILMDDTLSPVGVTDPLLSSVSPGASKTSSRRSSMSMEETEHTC

[4] = viability loss in CEM21 cells – cell-based, plate reader, dry powder, cytotoxicity control, dose response (AID 687026); type: functional
[5] = blockers of HIV-1 envelope-mediated cell-cell fusion – cherry-pick, dose response (AID 652057); type: functional, cell-based
Jurkat = experiment: SAR Analysis of small molecule inhibitors of […] specific antigen receptor-induced NF-kB activation in a Jurkat cell line using a luminescence assay - Set 3. [Related pubchem assays (depositor defined):AID435022, AID435025, AID465]; type: functional, cell-based; details: Homo sapiens
[6] = blockers of HIV-1 ZM109 envelope-driven cell-cell fusion – HeLa effector, CEM target cells, luciferase, cherry-pick, dose response (AID 652058); type: functional, cell-based;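 also: luciferase signal from HIV-1 Env mediated cell-cell fusion of effector and target cells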
[7] = alpha-synuclein stem-loop luciferase translation blockers – H4 neuroglioma cells, luminescence, confirmation (AID 1988); type: functional, cell-based
[8] = HEK-293T cell viability reduction – luminescence, B-cell screen hits, cytotoxicity control for BCR NF-kB inhibitor project, dose response (AID 489021); type: functional, cell-based;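 also: HEK-293T cells carrying an NF-kB luciferase reporter; cells exposed to compound for about 14 hours before viability readout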
[9] = HIV-1 AD8 envelope cell-cell fusion blockers – cherry-pick, dose response (AID 652062); type: functional, cell-based;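 also: luciferase signal from cell-cell fusion driven by HIV-1 clade B AD8 Env; potency is for inhibitors of fusion seen as a drop in luminescence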
[10] = luciferase signal loss, tTA control fusion, HeLa F-luc tTA cells, dry powder, counter-screen for HIV Env fusion inhibitor project, dose response (AID 687021); type: functional, cell-based
[11] = luciferase reporter signal suppression in cells – H4 neuroglioma cells, luminescence, dose response (AID 1990); type: functional, cell-based
[12] = Luminescence Cell-Based Dose Response HTS to Identify Inhibitors of 5'UTR Stem-Loop Driven Prion Protein mRNA Translation in H4 Neuroglioblastoma Cells. [Related pubchem assays: 1827 (Project Summary), 1813 (Primary HTS)]; type: functional
A-375 [13] = experiment: MITF: Counter assay: A375 proliferation Measured in Cell-Based System Using Plate Reader - 2084-03_Inhibitor_Dose_DryPowder_Activity. [Related pubchem assays (depositor defined):AID488944]; type: functional; details: Homo sapiens
HEK293 [14] = experiment: SAR Analysis of small molecule inhibitors of B-cell specific antigen receptor-induced NF-kB activation in a HEK-293T cell line using a luminescence assay - Set 2. [Related pubchem assays (depositor defined):AID435022, AID435025, AID489021]; type: functional, cell-based; details: Homo sapiens
A-375 [15] = experiment: proliferation inhibition in MITF-low A375 cells – cell-based, cherry-pick samples, set 2, counter-screen for MITF modulator project, dose response (AID 540335); type: functional; details: Homo sapiens
[16] = Luminescence-based counterscreen assay for KLF5 inhibitors: dose response cell-based high throughput screening assay to identify cytotoxic compounds using the IEC-6 intestinal epithelial cell line. [Related pubchem assays: 1700 (Primary screen.), 1834 (Confirmation screen.), 1858 (Summary AID.), 1905 (Counterscreen.)]; type: functional
HEK293 [17] = experiment: HEK293T cell viability loss, resazurin readout – resazurin fluorescence, cytotoxicity control for NF-kB activator project, SAR follow-up (AID 493251); type: functional, cell-based; details: Homo sapiens

Phospholipase A2, sequence (P04054 whole entry): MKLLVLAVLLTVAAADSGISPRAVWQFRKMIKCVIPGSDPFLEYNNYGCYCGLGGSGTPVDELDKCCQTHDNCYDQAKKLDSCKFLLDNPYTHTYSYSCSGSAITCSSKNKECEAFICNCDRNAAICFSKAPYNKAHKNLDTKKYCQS
Cysteine protease ATG4B, sequence (Q9Y4P1 whole entry): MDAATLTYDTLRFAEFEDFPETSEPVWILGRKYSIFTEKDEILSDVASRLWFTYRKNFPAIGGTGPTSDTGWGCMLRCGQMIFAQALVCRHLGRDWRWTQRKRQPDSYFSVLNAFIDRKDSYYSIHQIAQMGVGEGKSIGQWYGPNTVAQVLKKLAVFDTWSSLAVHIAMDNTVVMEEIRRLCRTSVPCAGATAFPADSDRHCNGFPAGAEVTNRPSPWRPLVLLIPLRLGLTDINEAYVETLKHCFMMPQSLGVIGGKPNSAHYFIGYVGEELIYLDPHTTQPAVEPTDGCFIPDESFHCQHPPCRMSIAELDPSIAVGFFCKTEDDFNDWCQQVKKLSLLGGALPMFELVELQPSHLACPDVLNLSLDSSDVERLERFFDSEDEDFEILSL

Compound | EC50 [1] | IC50 (Cysteine protease ATG4B) | EC50 [2] | IC50 (Phospholipase A2) | AC50 [3] | AC50 [4] | AC50 [5] | IC50 (Jurkat) | AC50 [6] | EC50 [7] | IC50 [8] | AC50 [9] | AC50 [10] | EC50 [11] | EC50 [12] | AC50 (A-375 [13]) | IC50 (HEK293 [14]) | AC50 (A-375 [15]) | IC50 [16] | IC50 (HEK293 [17])
CC(C)C[C@H](NC(=O)OC(C)(C)C)C(=O)N/N=C/C1=Cc2ccccc2OC1C (stereo not given in full) | > 60 µM (not active) | 37.1 µM (inactive) | 3.34 µM (active) | 15.4 µM (active) | – | – | – | – | – | – | – | – | – | – | – | – | – | – | – | –
CC(C)(C)c1ccc(-c2noc(CCC(=O)NCC3CCCO3)n2)cc1 (stereo not given) | – | – | – | – | 0.275 µM (active) | > 70 µM (inactive) | 0.359 µM (active) | 13.4 µM (active) | 0.293 µM (active) | 0.152 µM (active) | > 80 µM (inactive) | < 0.26 µM (active) | 67.1 µM (active) | < 0.1 µM (active) | 9.11 µM (active) | > 35 µM (active) | 1.54 µM (active) | > 35 µM (active) | > 39.8 µM (not active) | 70.9 µM (inactive)
